According to patent US20110111986A1, “NOVEL SACCHARIDE PRIMER AND USE THEREOF” (KEIO UNIVERSITY, priority 2007, published 2011):

Tested on: B16 cells
Test: Sugar chain extension reaction in B16 cells with saccharide primer (HPTLC, densitometer)
Type: cell-based, mouse
Settings: for extended sugar chain product detected by HPTLC: B16 cells 2.0×10^6 cells/plate, 48 hours, medium fraction and cell fraction, resorcinol staining
Protocol: When a saccharide primer is administered to the sugar chain-synthesizing cell described above, this cell reacts with the saccharide primer, and as a result, a desired sugar chain can be obtained. Specifically, a saccharide primer is administered at a concentration of 50 μM to a medium in which sugar chain-synthesizing cells (for example, B16 cells) are cultured, and the mixture is incubated at 37° C. for about 2 days. During that period, the saccharide primer is introduced into the cells, a sugar is added to the saccharide primer, and various types of sugar chains are produced in the culture liquid. The sugar chains are recovered from the culture liquid by a method known to a person skilled in the art, for example, a lectin column or a commercially available sugar chain purification kit.
First, the saccharide primer Lac-C12 and the saccharide primer Lac-C13:1(2) were added to each medium in which B16 cells (mouse melanoma cells strongly expressing GM3) (Japan Health Science Foundation, Health Science Research Resources Bank) were plated at a concentration of 2.0×10^6 cells/plate, and then incubated for 48 hours. Then, the medium and the cells were separated by centrifugation, and each of collected substances was analyzed with HPTLC.
With regard to the saccharide primer Lac-C12 and the saccharide primer Lac-C13:1(2), their sugar chain extension efficiencies in B16 cells and amounts of the saccharide primers taken into the cells were compared by a quantitative analysis with a densitometer.

Compound	extended sugar chain product detected by HPTLC	sugar chain extension efficiency (amounts of extended sugar chain products) (B16 cells, medium fraction, 48 hours incubation, densitometer quantitation, compared with Lac-C12, listed as Lac-O-C13:1(2))
CCCCCCCCCCCCO[C@@H]1OC(CO)[C@@H](O[C@@H]2OC(CO)[C@H](O)[C@H](O)C2O)[C@H](O)C1O (stereo partly drawn) [Lac-C12, reference compound]	a product X′ was confirmed in both the medium fraction and the cell fraction	–
CCCCCCCCCC/C=C/CO[C@@H]1OC(CO)[C@@H](O[C@@H]2OC(CO)[C@H](O)C(O)C2O)C(O)C1O (stereo partly drawn) [Lac-C13:1(2), 1-O-(trans-2-tridecenyl)-4-O-(β-D-galactopyranosyl)-β-D-glucopyranoside]	a product X was confirmed in both the medium fraction and the cell fraction	equal to or greater than those obtained by using a conventional primer
